Data published in patent US20240173332A1, “BENZO[…] TREATING OR PREVENTING RESPIRATORY SYNCYTIAL VIRUS INFECTION” (Pfizer Inc., priority 2021, published 2024).
Like-named read-outs stand apart in the source and are kept apart here.

Key:
[1] = Hepatocyte stability, dog; format: in vitro ADME; conditions: cryopreserved pooled hepatocytes, 3 μM compound, 60 min, read-out: Liver Hepatocyte Stability t1/2
Procedure: (§1) Compounds were subjected to the following assays to investigate liver microsomal stability and hepatocyte stability.
(§2) Cryopreserved pooled hepatocytes were purchased from a reputable commercial supplier and stored in liquid nitrogen prior to use. Williams E media supplemented with 2 mM L-glutamine and 25 mM HEPES and test compound (final substrate concentration 3 μM; final DMSO concentration 0.25%) are pre-incubated at 37° C. prior to the addition of a suspension of cryopreserved hepatocytes (final cell density 0.5 ×10^6 viable cells/mL in Williams E media supplemented with 2 mM L-glutamine and 25 mM HEPES) to initiate the reaction. The final incubation volume is 500 μL. Two control compounds were included with each species, alongside appropriate vehicle control. The reactions were stopped by transferring 50 μL of incubate to 100 μL acetonitrile containing internal standard at the appropriate time points. Samples were removed at 6 time points (0, 5, 15, 30, 45 and 60 min) over the course of a 60 min experiment. The termination plates were centrifuged at 2500 rpm at 4° C. for 30 min to precipitate the protein.
(§3) Following protein precipitation, the sample supernatants were combined in cassettes of up to 4 compounds and analysed using generic LC-MS/MS conditions. From a plot of In peak area ratio (compound peak area/internal standard peak area) against time, the gradient of the line was determined. Subsequently, half-life (t1/2) and intrinsic clearance (CLint) were calculated.

[2] = tested on: RSV A2; assay: RSV plaque reduction assay in Hep-G2 cells; format: cell-based, respiratory syncytial virus (RSV); conditions: human respiratory syncytial virus, HepG2, 48 h, Hep-G2 cells, RSV A2, 2 days; mean of at least two experiments; read-out: RSV A2 Plaque EC50
Procedure: Compounds were subjected to RSV plaque reduction assays according to the following protocol. Plaque EC50 and cell toxicity CC50 values are a mean of at least two experiments and figures are rounded to whole units.
Hep-G2 cells (ECACC, 85011430) were passaged in flasks and seeded in 24-well plates in DMEM containing antibiotics and supplemented with 10% FBS. During inoculation and subsequent incubation, cells were cultured in DMEM containing 2% FBS. 100 plaque forming unit/well of RSV (RSV A2 ECACC, 0709161v) was mixed with eight serial dilutions of compound. Subsequently, 100 μL of the virus/compound mixtures was added to confluent Hep-G2 cell monolayers. The cells and virus/compound mixtures were incubated at 37° C. in a humidified 5% CO2 incubator for 2 h prior to removal of the inoculum and addition of 1 mL of overlay (DMEM containing 2% FBS and 0.8% CMC) containing compound dilutions. The cells and were incubated at 37° C. in a humidified 5% CO2 incubator for 2 days.
Cells were washed with PBS before adding 75/25% v/v EtOH/MeOH, for 3 min. Fixative was removed and plates were washed with PBS. A pre-titrated amount of the primary antibody was added in 200 μL PBS/2% milk powder, and plates incubated for 90 min at 37° C. The plates were washed 3 times with PBS/0.05% Tween20 before addition of rabbit anti-goat horse radish peroxidase in 200 μL PBS/2% milk powder, and incubated for 1 h at 37° C. Following three wash steps with PBS/0.05% Tween20, 200 μL ready-to-use TrueBlue was added and plates were incubated at rt for 10-15 min before washing with water. After removal of water, plates were air-dried in the dark. Plates were scanned and analysed using the Immunospot S6 Macro analyser, which is equipped with BioSpot analysis software for counting immunostained plaques (virospots). Plaque counts were used to calculate % infection relative to the mean of the plaque count in the virus control wells for RSV. The EC50 value was calculated as 50% reduction in signal, respectively, by interpolation of inhibition curves fitted with a 4-parameter nonlinear regression with a variable slope in Dotmatics. Plaque EC50 and cell toxicity CC50 values are a mean of at least two experiments and figures are rounded to whole units.

[3] = Hepatocyte stability, human; format: in vitro ADME; conditions: cryopreserved pooled hepatocytes, 3 μM compound, 60 min, read-out: Liver Hepatocyte Stability t1/2
Procedure: as §1, §2, §3

[4] = Liver microsomal stability, rat; format: in vitro ADME; conditions: pooled liver microsomes, pH 7.4, 0.5 mg/mL protein, 1 μM compound, NADPH, read-out: Liver Microsomal Stability t1/2
Procedure: as §1
(§4) Pooled liver microsomes were purchased from a reputable commercial supplier and stored at −80° C. prior to use. Microsomes (final protein concentration 0.5 mg/mL), 0.1 M phosphate buffer pH 7.4 and test compound (final substrate concentration 1 μM; final DMSO concentration 0.25%) were pre-incubated at 37° C. prior to the addition of NADPH (final concentration 1 mM) to initiate the reaction. The final incubation volume was 50 μL. A control incubation was included for each compound tested where 0.1 M phosphate buffer pH 7.4 was added instead of NADPH (minus NADPH). Two control compounds were included with each species. All incubations were performed singularly for each test compound. Each compound was incubated for 0, 5, 15, 30 and 45 min. The control (minus NADPH) was incubated for 45 min only. The reactions were stopped by transferring incubate into acetonitrile at the appropriate time points, in a 1:3 ratio. The termination plates are centrifuged at 3,000 rpm for 20 min at 4° C. to precipitate the protein. Following protein precipitation, the sample supernatants were combined in cassettes of up to 4 compounds, internal standard added, and samples analysed by LC-MS/MS. From a plot of In peak area ratio (compound peak area/internal standard peak area) against time, the gradient of the line was determined. Subsequently, half-life (t1/2) and intrinsic clearance (CLint) were calculated.

[5] = Cell cytotoxicity CC50; format: cell-based; conditions: human, Hep-G2 cells; mean of at least two experiments unless (n = 1)
[6] = Hepatocyte stability, rat; format: in vitro ADME; conditions: cryopreserved pooled hepatocytes, 3 μM compound, 60 min, read-out: Liver Hepatocyte Stability t1/2
Procedure: as §1, §2, §3

[7] = Liver microsomal stability, human; format: in vitro ADME; conditions: pooled liver microsomes, pH 7.4, 0.5 mg/mL protein, 1 μM compound, NADPH, read-out: Liver Microsomal Stability t1/2
Procedure: as §1, §4

[8] = In vivo pharmacokinetics in rats (IV and PO); set-up: species or system Male rats [Sprague Dawley (SD)]; conditions: male SD rat; for half-life / Vd / clearance / Cmax / AUC(0-t): Sprague Dawley, plasma; for Vd / clearance / Cmax: study IV 1 mg/kg; for Cmax: route not given; for AUC(0-t): read-out: PO AUClast; for F: PO 10 mg/kg vs IV 1 mg/kg
Procedure: The pharmacokinetics of compounds were studied in vivo in rats at doses of 1 mg/kg (IV) and 10 mg/kg (PO).
Male rats [Sprague Dawley (SD)] surgically prepared with a jugular vein cannula were treated with experimental compounds via intravenous administration (IV; n=3; 1 mg/kg) or oral administration (PO; n=3; 10 mg/kg). Compounds were formulated as a solution in 40:60 dimethylacetamide:saline (IV administration) and a solution of 10% DMSO, 10% cremaphor in water (80%) (PO administration). […] Serial blood samples were collected via the cannula at 0.02, 0.08, 0.25, 0.5, 1, 2, 4, 6, 8 and 24 h post IV dosing of compound, and at 0.08, 0.25, 0.5, 1, 2, 4, 6, 8 and 24 h post oral dosing of compound, and plasma was prepared by centrifugation and stored immediately at −80° C. Samples were subsequently thawed, prepared for analysis by protein precipitation with acetonitrile, and analysed by tandem LCMS using electrospray ionisation using a matrix-matched calibration curve. PK parameters were calculated from the resulting data.

[9] = Liver microsomal stability, dog; format: in vitro ADME; conditions: pooled liver microsomes, pH 7.4, 0.5 mg/mL protein, 1 μM compound, NADPH, read-out: Liver Microsomal Stability t1/2
Procedure: as §1, §4

[10] = tested on: RSV; conditions: Antimicrobial Agents and Chemotherapy, Sept. 2007, 3346-3353; cited from earlier work
[11] = IV 1 mg/kg, read-out: IV t1/2 (converted)
[12] = PO 10 mg/kg, read-out: PO t1/2 (converted)

Row | Structure (SMILES) | half-life at 3 μM [1] [h] | EC50 [2] [nM] | half-life at 3 μM [3] [h] | half-life at 1 μM [4] [h] | CC50 [5] [nM] | half-life at 3 μM [6] [h] | half-life at 1 μM [7] [h] | half-life [8, 11] [h] | half-life [8, 12] [h] | Vd ([8]; PO 10 mg/kg) [L/kg] | clearance ([8]; PO 10 mg/kg) [mL/min/kg] | Cmax ([8]; PO 10 mg/kg) [ng/mL] | AUC(0-t) ([8]; PO 10 mg/kg) [ng·h/mL] | F [8] [%] | half-life at 1 μM [9] [h] | anti-RSV activity [10]
1 | O=C(N[C@H]1N=C(c2ccccc2)c2cccc(F)c2NC1=O)c1c(-c2ccc(CO)cc2F)nn2cccnc12 [Example 1, 2-[2-Fluoro-4-(hydroxymethyl)phenyl]-N-[(35)-9-fluoro-2-oxo-5-phenyl-1,3-dihydro-1,4-benzodiazepin-3-yl]pyrazolo[1,5-a]pyrimidine-3-carboxamide] | 2.62 | 18 | 5.55 | 0.69 | > 25000 | 1.38 | 5.48 | 1.5 | 3.1 | 0.75 | 11.5 | 788 | 3880 | 25.6 | 10.6 | –
2 | CC(C)n1cc(-c2nn3cccnc3c2C(=O)N[C@H]2N=C(c3ccccc3)c3cccc(F)c3NC2=O)cn1 [Example 4, N-[(3S)-9-fluoro-2-oxo-5-phenyl-1,3-dihydro-1,4-benzodiazepin-3-yl]-2-(1-propan-2-ylpyrazol-4-yl)pyrazolo[1,5-a]pyrimidine-3-carboxamide] | 1.4 | 37 | 3.78 | 2.63 | > 25000 | 2.17 | 6.58 | 4.4 | 3.7 | 0.49 | 1.9 | 4790 | 57100 | 54.6 | 2.62 | –
3 | O=C(N[C@H]1N=C(c2ccccc2)c2cccc(F)c2NC1=O)c1c(-c2cccc(CO)c2F)nn2cccnc12 [Example 18, 2-[2-Fluoro-3-(hydroxymethyl)phenyl]-N-[(3S)-9-fluoro-2-oxo-5-phenyl-1,3-dihydro-1,4-benzodiazepin-3-yl]pyrazolo[1,5-a]pyrimidine-3-carboxamide] | > 3 | 44 | > 3 | 0.983 | > 25000 | 1.57 | 8.83 | – | – | – | – | – | – | – | 6.5 | –
4 | O=C(Nc1ccccc1F)N[C@H]1N=C(c2ccccc2)c2ccccc2NC1=O [RSV604] | – | – | – | – | – | – | – | – | – | – | – | – | – | – | – | sub-micromolar
